The results in this text go back to paper PMC5522996, “Big conductance calcium‐activated potassium channel openers control spasticity without sedation” (British Journal of Pharmacology, 2017).

One data set has as its system rat mesenteric artery. Put plainly: Methoxamine‐evoked contraction of rat mesenteric artery. It counts as cell-based. How it is done:
Vessels were equilibrated and set to a basal tension of 2 to 2.5 mN. The integrity of the endothelium was assessed by pre‐contracting the vessel with 10 μM methoxamine (an α1‐adrenoceptor agonist), followed by relaxation with 10 μM carbachol (a muscarinic acetylcholine receptor agonist); vessels showing relaxations of greater than 90% were designated as endothelium‐intact. When the endothelium was not required, it was removed by rubbing the intima with a human hair; carbachol‐induced relaxation of less than 10% indicated successful removal. After the test for endothelial integrity, vessels were left for 30 min and then pre‐contracted with 10 μM methoxamine. This was followed by construction of a cumulative concentration–relaxation curve to VSN16R (10 nM–1 μM). […] Most experiments were performed in matched vessels; effects of blockers or endothelial removal were compared with the control responses obtained in separate vessels of the same rats. All relaxant responses are expressed as percentage relaxation of the tone induced by methoxamine. Values are given as mean ± SEM. Statistical comparisons of concentration‐dependent responses were made by two‐way ANOVA using Prism 4 (GraphPad Software, Inc, San Diego, CA, USA).

Data set [1] relates to Salmonella typhimurium and Escherichia coli strains. Description: Standard Ames test (summary). Type of data set: cell-based. How it is done:
Strain of Organism Treatment Dose Revertants per plate
First Mutation without Metabolic Stimulation
Second Mutation without Metabolic Stimulation
VSN16R was incubated at various concentrations with either TA1535, TA1537, TA98 and TA100 strains of Salmonella typhimurium, which carry mutations in genes involved in histidine synthesis, and WP2uvvA Escherichia coli. The bacteria are spread on agar plates with limiting histidine content and incubated for 48 h. The number of histidine gene negative to positive revertants was assessed in two experiments. The results represent the mean ± SD. n=3/group. This was performed by Charles

The target of another data set is T1, BKCa channel (Homo sapiens, UniProt Q12791+Q86W47).
T1 construct: host or cells: EA.hy926 endothelial cells
Description: Single‐channel inside‐out patch clamp, EA.hy926 cells. As to conditions: 3 μM, inner surface of membrane, 40 mV, 0.3 μM free Ca^2+. Type of data set: cell-based. How it is done:
The human EA.hy926 endothelial cells (ATCC, Manassas, USA) were grown in DMEM containing 10% FCS and 1% HAT (5 mM hypoxanthine, 20 μM aminopterin and 0.8 mM thymidine) and were maintained in an incubator at 37°C in 5% CO2 atmosphere (Bondarenko et al., 2013). Human HNC‐2 neuronal cells were obtained from ATCC. For experiments, cells were plated on glass coverslips. Single‐channel recordings were obtained from excised inside‐out membrane patches in symmetrical solutions using the patch‐clamp technique. All patch‐clamp experiments were performed at room temperature with the use of a water hydraulic micromanipulator (WR‐6, Narishige, Japan). […] The pipettes were filled with 140 mM KCl, 10 mM HEPES, 1 mM MgCl2, 5 mM EGTA and […] CaCl2 buffered to pH 7.2 by adding KOH. Cells were super‐perfused with a bath solution containing 140 mM NaCl, 5 mM KCl, 1.2 mM MgCl2, 10 mM HEPES, 10 mM glucose and 2.4 mM CaCl2. Following gigaseal formation, bath solution was switched to the following: 140 mM KCl, 10 mM HEPES, 1 mM MgCl2, 5 mM EGTA and a designated free Ca^2+ concentration, which was adjusted by adding different amounts of CaCl2 buffered to pH 7.2. (Bondarenko et al., 2011; Bondarenko et al., 2013). Single‐channel activity was expressed as NPo, where N represents the number of functional ion channels in the membrane patch and Po represents the open channel probability determined from idealized traces (Bondarenko et al., 2011). NPo was obtained from ≥20 s of continuous recording under each experimental condition. The effect of VSN16R was estimated after 3 min of continuous exposure to VSN16R‐containing solution. Data were analysed by ANOVA, and statistical significance was evaluated using Scheffés post hoc test of the Prism 5 software for Windows (GraphPad Software).

For a further data set, the target named is T2, CYP450 2C8 (Homo sapiens, UniProt P10632).
T2 construct: host or cells: BTI NN-5B1-4 or Sf9 insect cells
Description: CYP450 inhibition of substrate binding. Type of data set: in vitro ADME. The note with it: read-out: IC50 Inhibition of substrate binding, VSN16R.

For a further data set, the target named is T3, NK2 (Homo sapiens, UniProt P21452).
T3 construct: purchased Cerep; Chantest; DiscoveRx; Multispan; MDS Pharma Services
Description: Receptor binding profile of VSN16R. As to conditions: 10µM VSN16R.

The target in another data set is T4, NK3 (Homo sapiens, UniProt P29371).
T4 construct: purchased Cerep; Chantest; DiscoveRx; Multispan; MDS Pharma Services
Description: Receptor binding profile of VSN16R. As to conditions: 10µM VSN16R.

In the next data set the target is T5, 5-HT7 (Homo sapiens, UniProt P34969).
T5 construct: purchased Cerep; Chantest; DiscoveRx; Multispan; MDS Pharma Services
Description: Receptor binding profile of VSN16R. The note with it: 10µM VSN16R.

The test system of a further data set is Cl- channel. Description: Receptor binding profile of VSN16R. Details: species or system human. As to conditions: 10µM VSN16R.
A further data set concerns the target T6, NE transporter (Homo sapiens, UniProt P23975).
T6 construct: purchased Cerep; Chantest; DiscoveRx; Multispan; MDS Pharma Services
Description: Receptor binding profile of VSN16R. As to conditions: 10µM VSN16R.

Another data set deals with T7, GPR55 (Homo sapiens, UniProt Q9Y2T6).
T7 construct: purchased Cerep; Chantest; DiscoveRx; Multispan; MDS Pharma Services
Description: Receptor binding profile of VSN16R.

Another data set deals with T8, EDG4 (Homo sapiens, UniProt Q9HBW0).
T8 construct: purchased Cerep; Chantest; DiscoveRx; Multispan; MDS Pharma Services
Put plainly: Receptor binding profile of VSN16R. The note with it: 10µM VSN16R.

Another data set concerns GABAB. Description: Receptor binding profile of VSN16R. Also on record: species or system human. As to conditions: 10µM VSN16R.
The target in the next data set is CYP450 2B6 (Homo sapiens, UniProt P20813).
A further data set addresses CYP450 2A6 (Homo sapiens, UniProt P11509). Put plainly: CYP450 inhibition of substrate binding.

T7 sequence (Q9Y2T6 whole entry): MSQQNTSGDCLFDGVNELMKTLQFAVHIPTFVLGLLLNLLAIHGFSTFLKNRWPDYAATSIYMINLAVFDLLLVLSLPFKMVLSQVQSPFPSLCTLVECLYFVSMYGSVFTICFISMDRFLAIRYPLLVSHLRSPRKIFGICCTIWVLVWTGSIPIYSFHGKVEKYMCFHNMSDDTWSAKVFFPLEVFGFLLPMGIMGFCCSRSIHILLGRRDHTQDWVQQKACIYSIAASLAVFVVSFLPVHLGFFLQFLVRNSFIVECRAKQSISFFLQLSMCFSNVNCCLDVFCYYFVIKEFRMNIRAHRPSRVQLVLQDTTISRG
T4 sequence (P29371 whole entry): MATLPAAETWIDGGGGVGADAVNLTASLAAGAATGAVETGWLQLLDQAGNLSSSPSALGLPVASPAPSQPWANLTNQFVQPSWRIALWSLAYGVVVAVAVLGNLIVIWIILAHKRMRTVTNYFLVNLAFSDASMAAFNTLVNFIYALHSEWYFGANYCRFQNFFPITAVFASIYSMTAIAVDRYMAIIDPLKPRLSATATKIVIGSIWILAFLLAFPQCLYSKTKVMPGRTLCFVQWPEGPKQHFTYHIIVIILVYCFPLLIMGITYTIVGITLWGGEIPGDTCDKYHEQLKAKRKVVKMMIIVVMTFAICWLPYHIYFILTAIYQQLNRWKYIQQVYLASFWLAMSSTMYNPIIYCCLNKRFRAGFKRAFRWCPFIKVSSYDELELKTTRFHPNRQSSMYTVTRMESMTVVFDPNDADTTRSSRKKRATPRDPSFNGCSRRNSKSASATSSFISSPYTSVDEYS
T3 sequence (P21452 whole entry): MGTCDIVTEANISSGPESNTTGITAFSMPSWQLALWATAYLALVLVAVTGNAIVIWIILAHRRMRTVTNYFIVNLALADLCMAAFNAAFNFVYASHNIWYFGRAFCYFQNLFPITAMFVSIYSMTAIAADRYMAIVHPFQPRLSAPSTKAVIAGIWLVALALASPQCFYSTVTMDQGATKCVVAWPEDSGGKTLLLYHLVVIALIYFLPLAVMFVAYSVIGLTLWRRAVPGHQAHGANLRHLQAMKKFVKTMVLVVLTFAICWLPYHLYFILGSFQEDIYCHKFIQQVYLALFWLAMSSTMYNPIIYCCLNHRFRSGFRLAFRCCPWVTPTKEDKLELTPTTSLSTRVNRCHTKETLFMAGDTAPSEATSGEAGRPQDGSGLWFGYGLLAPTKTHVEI
Chain of CYP450 2B6 (P20813 whole entry): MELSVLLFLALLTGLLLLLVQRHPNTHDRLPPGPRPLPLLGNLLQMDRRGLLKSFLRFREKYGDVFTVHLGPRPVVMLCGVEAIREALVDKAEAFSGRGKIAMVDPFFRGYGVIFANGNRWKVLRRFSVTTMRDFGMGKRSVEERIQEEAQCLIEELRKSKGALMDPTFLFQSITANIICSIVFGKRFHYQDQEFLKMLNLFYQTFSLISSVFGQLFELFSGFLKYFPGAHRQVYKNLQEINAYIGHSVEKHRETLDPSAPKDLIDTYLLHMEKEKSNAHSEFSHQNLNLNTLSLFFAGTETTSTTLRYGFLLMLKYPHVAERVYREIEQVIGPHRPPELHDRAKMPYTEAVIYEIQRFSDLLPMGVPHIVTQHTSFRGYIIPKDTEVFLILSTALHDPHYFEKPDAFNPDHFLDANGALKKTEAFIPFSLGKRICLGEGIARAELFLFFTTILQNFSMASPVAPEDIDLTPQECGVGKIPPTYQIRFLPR
T2 sequence (P10632 whole entry): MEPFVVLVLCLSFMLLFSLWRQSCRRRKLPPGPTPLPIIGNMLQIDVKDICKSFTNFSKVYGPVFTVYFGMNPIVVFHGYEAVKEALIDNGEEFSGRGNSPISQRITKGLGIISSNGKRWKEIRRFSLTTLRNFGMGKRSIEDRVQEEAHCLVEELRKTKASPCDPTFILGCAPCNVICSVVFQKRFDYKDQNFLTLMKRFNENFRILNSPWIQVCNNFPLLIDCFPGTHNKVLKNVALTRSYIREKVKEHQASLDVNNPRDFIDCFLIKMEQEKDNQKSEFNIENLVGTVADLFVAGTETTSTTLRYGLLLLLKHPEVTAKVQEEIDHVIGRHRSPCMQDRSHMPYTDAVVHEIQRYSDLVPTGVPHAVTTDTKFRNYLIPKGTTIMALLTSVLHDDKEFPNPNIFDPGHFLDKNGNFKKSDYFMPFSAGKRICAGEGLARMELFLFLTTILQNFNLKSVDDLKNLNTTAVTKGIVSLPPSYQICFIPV
T1 sequence (Q12791 whole entry): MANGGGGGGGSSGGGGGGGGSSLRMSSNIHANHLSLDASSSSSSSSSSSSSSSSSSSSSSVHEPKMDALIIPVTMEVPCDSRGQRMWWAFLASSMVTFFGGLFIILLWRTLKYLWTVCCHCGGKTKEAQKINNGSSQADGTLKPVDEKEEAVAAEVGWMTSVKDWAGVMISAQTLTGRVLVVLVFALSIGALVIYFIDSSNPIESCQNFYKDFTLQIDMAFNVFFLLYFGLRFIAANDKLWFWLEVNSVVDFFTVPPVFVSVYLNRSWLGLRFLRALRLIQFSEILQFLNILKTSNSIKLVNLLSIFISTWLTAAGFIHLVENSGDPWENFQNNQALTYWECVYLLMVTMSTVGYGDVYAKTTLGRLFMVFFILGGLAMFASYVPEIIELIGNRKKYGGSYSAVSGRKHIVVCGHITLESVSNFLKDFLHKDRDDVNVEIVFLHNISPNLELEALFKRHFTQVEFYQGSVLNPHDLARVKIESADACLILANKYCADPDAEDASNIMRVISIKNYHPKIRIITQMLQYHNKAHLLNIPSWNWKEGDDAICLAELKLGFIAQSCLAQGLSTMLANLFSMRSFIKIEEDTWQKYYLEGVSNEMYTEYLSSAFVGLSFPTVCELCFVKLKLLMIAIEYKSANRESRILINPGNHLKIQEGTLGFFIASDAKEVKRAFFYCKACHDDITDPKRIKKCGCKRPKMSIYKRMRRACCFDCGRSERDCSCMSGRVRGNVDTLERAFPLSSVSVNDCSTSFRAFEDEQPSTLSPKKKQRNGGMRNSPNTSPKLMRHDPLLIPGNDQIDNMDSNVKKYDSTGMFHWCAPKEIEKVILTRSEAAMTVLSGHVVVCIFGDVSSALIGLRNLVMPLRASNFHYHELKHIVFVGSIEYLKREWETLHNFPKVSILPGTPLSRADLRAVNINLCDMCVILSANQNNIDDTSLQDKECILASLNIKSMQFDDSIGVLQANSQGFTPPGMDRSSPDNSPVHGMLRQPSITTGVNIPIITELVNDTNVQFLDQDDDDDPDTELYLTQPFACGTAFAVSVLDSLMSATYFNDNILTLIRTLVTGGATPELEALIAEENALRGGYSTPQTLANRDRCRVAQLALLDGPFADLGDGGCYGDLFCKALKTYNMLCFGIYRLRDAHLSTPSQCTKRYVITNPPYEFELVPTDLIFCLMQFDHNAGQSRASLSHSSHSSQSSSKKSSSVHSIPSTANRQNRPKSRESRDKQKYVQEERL
T1 sequence (Q86W47 whole entry): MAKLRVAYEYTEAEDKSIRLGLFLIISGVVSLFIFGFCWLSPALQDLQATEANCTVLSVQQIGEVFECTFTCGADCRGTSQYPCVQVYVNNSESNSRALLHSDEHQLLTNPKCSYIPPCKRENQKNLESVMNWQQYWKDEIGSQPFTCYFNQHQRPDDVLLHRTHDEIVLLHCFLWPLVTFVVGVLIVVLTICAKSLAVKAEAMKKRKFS
T5 sequence (P34969 whole entry): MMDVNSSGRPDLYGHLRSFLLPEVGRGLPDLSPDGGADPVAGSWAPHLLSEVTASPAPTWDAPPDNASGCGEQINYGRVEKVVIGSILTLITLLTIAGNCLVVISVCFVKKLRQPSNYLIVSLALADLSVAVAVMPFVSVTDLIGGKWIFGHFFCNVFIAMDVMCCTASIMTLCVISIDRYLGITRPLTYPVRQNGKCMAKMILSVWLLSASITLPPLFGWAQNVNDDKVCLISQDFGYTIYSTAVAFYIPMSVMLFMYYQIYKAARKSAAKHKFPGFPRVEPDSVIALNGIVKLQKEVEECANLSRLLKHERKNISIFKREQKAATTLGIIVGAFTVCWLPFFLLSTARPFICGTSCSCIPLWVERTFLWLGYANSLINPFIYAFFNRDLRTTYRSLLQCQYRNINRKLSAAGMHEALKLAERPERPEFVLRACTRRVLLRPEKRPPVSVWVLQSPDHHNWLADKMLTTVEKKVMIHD
Chain of CYP450 2A6 (P11509 whole entry): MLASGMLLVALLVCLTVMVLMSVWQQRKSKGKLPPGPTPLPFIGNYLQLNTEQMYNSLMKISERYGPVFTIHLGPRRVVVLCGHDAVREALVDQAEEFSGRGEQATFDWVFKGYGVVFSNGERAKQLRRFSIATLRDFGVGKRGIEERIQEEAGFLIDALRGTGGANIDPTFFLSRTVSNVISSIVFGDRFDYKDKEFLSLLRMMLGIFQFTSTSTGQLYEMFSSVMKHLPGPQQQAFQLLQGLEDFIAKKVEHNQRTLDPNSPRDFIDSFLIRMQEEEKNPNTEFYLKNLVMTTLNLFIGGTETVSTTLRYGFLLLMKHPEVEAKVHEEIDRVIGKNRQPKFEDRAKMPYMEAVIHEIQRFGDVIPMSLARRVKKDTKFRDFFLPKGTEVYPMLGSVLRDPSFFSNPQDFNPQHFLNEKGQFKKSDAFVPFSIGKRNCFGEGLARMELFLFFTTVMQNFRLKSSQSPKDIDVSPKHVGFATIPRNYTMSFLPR
T8 sequence (Q9HBW0 whole entry): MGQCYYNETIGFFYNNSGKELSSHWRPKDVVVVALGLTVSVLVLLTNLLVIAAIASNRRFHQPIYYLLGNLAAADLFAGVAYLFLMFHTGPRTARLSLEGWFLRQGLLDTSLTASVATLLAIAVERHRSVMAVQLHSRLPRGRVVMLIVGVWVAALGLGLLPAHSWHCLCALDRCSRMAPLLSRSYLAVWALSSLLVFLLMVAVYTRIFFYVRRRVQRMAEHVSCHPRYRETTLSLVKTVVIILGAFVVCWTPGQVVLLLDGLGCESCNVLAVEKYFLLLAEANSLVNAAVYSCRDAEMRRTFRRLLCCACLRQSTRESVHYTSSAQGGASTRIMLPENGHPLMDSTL
Description for CYP450 2A6: (§1) Inhibition of binding of either 3-cyano-7-ethoxycoumarin, dibenzylfluorescein or 7-benzyoxy-4-
(§2) (trifluoromethyl) coumarin in human enzyme transfected BTI NN-5B1-4 cells or Sf9 insect cells or
(§3) inhibition of dextromethorphan substrate to CYP450 2D6 in liver microsomes.
Description for CYP450 2B6: as §1, §2, §3
Description for CYP450 2C8: as §1, §2, §3

Take `C[C@H](CO)NC(=O)c1cccc(/C=C\CCCC(=O)N(C)C)c1` [VSN16R]: the “Relaxation in the presence of extracellular KCl” value with rat mesenteric artery (60 mM KCl) is “produced no relaxation”. Moreover, the Vasorelaxation entry in the data set with rat mesenteric artery (endothelium intact vs denuded) is “significant vasorelaxation in an endothelium‐dependent manner”. Further, the “Mutagenesis in a standard Ames test” value in [1] was “no evidence of mutagenesis”. Also, the “Single BKCa channel activity” value on BKCa channel is reported as “facilitated single BKCa channel activity”. Besides, the IC50 on CYP450 2C8, at CYP450 2B6 and on CYP450 2A6 was above 10 µM in each case. Further, the Activity result at NK2, at NK3, on 5-HT7, in the data set on Cl- channel, on NE transporter and on GPR55 (10µM VSN16R) was “Negligible Activity” throughout. Further, the Activity entry on EDG4 and with GABAB was “Negligible Activity” throughout. Further, the “Binding to GPR55” value at GPR55 (Multispan C1113, H113, HEK293T.GPR55 and mouse DBT.Gpr55 cell lines) is on record as “does not directly bind”.
